Laboratory results as given in US20250092065A1, “2-(INDAZOL-5-YL)-6-(PIPERIDIN-4-YL)-1,7-NAPHTHYRIDINE DERIVATIVES AND RELATED COMPOUNDS AS MODULATORS FOR SPLICING NUCLEIC ACIDS AND FOR THE TREATMENT OF PROLIFERATIVE DISEASES” (REMIX THERAPEUTICS INC., priority 2022, published 2025).
Read-outs that look alike come from different tables or passages of the source.

Assays:
MYB mRNA = assay: RT-qPCR splicing assay, MYB mRNA canonical (CJ) and alternative (AJ) junction; format: cell-based, human; details: Homo sapiens; for AC50: MYB alternative junction mRNA, read-out: MYB AJ (increase in AJ mRNA, AC50)
Summary of the method: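 Splice switching quantified in compound-treated A673/K562 cells after 24 h exposure (top dose 10 uM, 3-fold steps, ≤0.25% DMSO), using CJ and AJ qPCR assays run at least in duplicate. RQ derived by 2^(−ΔΔCt), then percentage response.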

MYB = assay: HiBiT protein abundance assay, MYB (K562 HiBiT knock-in); format: cell-based, human; details: HiBiT knock-in K562 cells, 24 hours, top dose 10 μM
Summary of the method: (§1)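 Luminescence readout: Nano-Glo HiBiT lytic detection after 24 h compound exposure of K562 HiBiT knock-in cells, 10000 cells/well. Dosing 10-pt, 3-fold, top 10 μM final. % response vs untreated parental K562 and DMSO controls; 4PL fit, IC50 = concentration giving 50% protein abundance.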

HTT = assay: HiBiT protein abundance assay, HTT (K562 HiBiT knock-in); format: cell-based, human; details: HiBiT knock-in K562 cells, 24 hours, top dose 10 μM
Summary of the method: as §1

Target C = assay: HiBiT protein abundance assay, Target C (K562 HiBiT knock-in); format: cell-based, human; details: HiBiT knock-in K562 cells, 24 hours, top dose 10 μM
Summary of the method: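 K562 HiBiT knock-in cells (10000/well) were treated 24 h at 37° C with a 10-point 3-fold dilution series (top 10 μM final, ≤0.25% DMSO). HiBiT luminescence was read after lytic LgBiT detection. Percent response used unmodified K562 and DMSO-treated knock-in controls, and IC50 came from a four-parameter fit at 50% of untreated.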

K562 cells = assay: Cell Titer Glo 2.0 cell viability (toxicity) assay, K562; details: 500 cells/well, 72 hours
Protocol: Compounds described herein were screened for toxicity in K562 (human chronic myelogenous leukemia) and SH-SY5Y (human neuroblastoma) cells using a Cell Titer Glo 2.0 assay.
Cells were plated at 500 cells/well (K562 cells) in 45 μL of IMDM supplemented with 10% FBS in a 384-well opaque plate. Wells containing only medium were used as a blank control. Test compounds (e.g., compounds of Formula (I) or (II)) were first serially diluted in DMSO then diluted 1:100 with EIDM+10% FBS. The final concentration of DMSO was 0.1% in each well. The cells were incubated for 72 hours at 37° C. and 5% CO2 before assaying with Cell Titer Glo 2.0 reagent.

[1] = MYB canonical junction mRNA, RT-qPCR, read-out: MYB CJ (decrease in CJ mRNA levels, IC50)
[2] = canonical junction qPCR panel, Table 4, read-out: MYB IC50 (decrease in CJ mRNA levels)

Structure (SMILES)	AC50 (MYB mRNA; RT-qPCR) [µM]	IC50 (MYB mRNA; [1]) [µM]	IC50 (MYB mRNA; [2]) [µM]	IC50 (MYB) [µM]	IC50 (HTT) [µM]	IC50 (Target C) [µM]	Effect of Exemplary Compounds on Cell Viability, K562 (K562 cells)
CN[C@@H]1CCN(c2ccc3nc(-c4cc(C#N)c5nc(C)cn5c4)ncc3n2)C1 [Compound 407, 2-methyl-6-{6-[(3R)-3-(methylamino)pyrrolidin-1-yl]pyrido[3,2-d]pyrimidin-2-yl}imidazo[1,2-a]pyridine-8-carbonitrile]	0.1 to 1	0.1 to 1	0.1 to 1	0.1 to 1	0.1 to 1	1 to 10	B (B represents 100-1000 nM)
Cc1nc2cc(O)c(-c3ccc4nc(N5CCNCC5)ccc4n3)cc2o1 [Compound 408, 2-methyl-6-[6-(piperazin-1-yl)-1,5-naphthyridin-2-yl]-1,3-benzoxazol-5-ol]	0.1 to 1	0.1 to 1	0.1 to 1	0.1 to 1	0.1 to 1	0.1 to 1	B (B represents 100-1000 nM)
Cc1nc2cc(O)c(-c3ccc4nc(N5CCN[C@@H](C)C5)ccc4n3)cc2o1 [Compound 409]	0.1 to 1	0.1 to 1	0.1 to 1	0.1 to 1	0.1 to 1	0.1 to 1	B (B represents 100-1000 nM)
Cc1nc2cc(O)c(-c3ccc4nc(N5CCN6CCCC6C5)ccc4n3)cc2o1 (stereo not drawn) [Compound 410]	0.1 to 1	0.1 to 1	0.1 to 1	0.1 to 1	0.1 to 1	0.1 to 1	B (B represents 100-1000 nM)
Cc1nc2cc(O)c(-c3ccc4nc(N5CCNC6(CC6)C5)ccc4n3)cc2o1 [Compound 411]	0.1 to 1	0.1 to 1	0.1 to 1	0.1 to 1	1 to 10	1 to 10	C (C represents 1000-9999 nM)
Cc1nc2cc(O)c(-c3ccc4nc(N5CCC(NC(C)(C)C)CC5)ccc4n3)cc2o1 [Compound 412]	0.1 to 1	0.1 to 1	0.1 to 1	0.1 to 1	0.1 to 1	0.1 to 1	B (B represents 100-1000 nM)
Cc1nc2cc(O)c(-c3ccc4nc(N5CC[C@@H](NC(C)(C)C)C5)ncc4n3)cc2o1 [Compound 413, 6-{2-[(3R)-3-(tert-butylamino)pyrrolidin-1-yl]pyrido[3,2-d]pyrimidin-6-yl}-2-methyl-1,3-benzoxazol-5-ol]	< 0.1	< 0.1	< 0.1	< 0.1	< 0.1	< 0.1	B (B represents 100-1000 nM)
Cc1nc2cc(O)c(-c3ccc4nc(N5CC[C@H](NC(C)(C)C)C5)ncc4n3)cc2o1 [Compound 414, 6-{2-[(3S)-3-(tert-butylamino)pyrrolidin-1-yl]pyrido[3,2-d]pyrimidin-6-yl}-2-methyl-1,3-benzoxazol-5-ol]	1 to 10	1 to 10	1 to 10	1 to 10	0.1 to 1	0.1 to 1	B (B represents 100-1000 nM)
Cc1nc2c(C)c(O)c(-c3ccc4nc(N5CC[C@H](NC(C)C)C5)ncc4n3)cc2o1 [Compound 416, 6-{2-[(3S)-3-(isopropylamino)pyrrolidin-1-yl]pyrido[3,2-d]pyrimidin-6-yl}-2,4-dimethyl-1,3-benzoxazol-5-ol]	< 0.1	< 0.1	< 0.1	< 0.1	< 0.1	< 0.1	A (A represents <100 nM)
Cc1nc2cc(O)c(-c3ccc4cc(N5CC[C@@H](NC(C)(C)C)C5)ncc4n3)cc2o1 [Compound 417]	0.1 to 1	0.1 to 1	0.1 to 1	< 0.1	0.1 to 1	1 to 10	B (B represents 100-1000 nM)
Cc1nc2cc(O)c(-c3ccc4nc(N5CCN[C@@H](C6CC6)C5)ccc4n3)cc2o1 [Compound 418]	0.1 to 1	0.1 to 1	0.1 to 1	0.1 to 1	0.1 to 1	0.1 to 1	B (B represents 100-1000 nM)
Cc1nc2cc(O)c(-c3ccc4nc(N5C[C@@H](C)N[C@@H](C6CC6)C5)ccc4n3)cc2o1 [Compound 419]	0.1 to 1	0.1 to 1	0.1 to 1	0.1 to 1	0.1 to 1	0.1 to 1	B (B represents 100-1000 nM)
Cc1nc2cc(O)c(-c3ccc4nc(N5C[C@@H](C)N[C@@H](C)C5)ccc4n3)cc2o1 [Compound 420]	0.1 to 1	0.1 to 1	0.1 to 1	0.1 to 1	0.1 to 1	0.1 to 1	B (B represents 100-1000 nM)
Cc1nc2cc(O)c(-c3ccc4nc(N5CCN[C@H](C6CC6)C5)ccc4n3)cc2o1 [Compound 421]	0.1 to 1	0.1 to 1	0.1 to 1	0.1 to 1	0.1 to 1	0.1 to 1	B (B represents 100-1000 nM)
Cc1nc2cc(O)c(-c3ccc4nc(N5CCN[C@@H](C(C)C)C5)ccc4n3)cc2o1 [Compound 422]	0.1 to 1	0.1 to 1	0.1 to 1	0.1 to 1	0.1 to 1	0.1 to 1	B (B represents 100-1000 nM)
Cc1nc2cc(O)c(-c3ccc4nc(N5CCC(N)CC5)ccc4n3)cc2o1 [Compound 424]	1 to 10	1 to 10	1 to 10	1 to 10	1 to 10	0.1 to 1	B (B represents 100-1000 nM)
CNC1CCN(c2ccc3nc(-c4cc5oc(C)nc5cc4O)ccc3n2)CC1 [Compound 425]	1 to 10	1 to 10	1 to 10	1 to 10	1 to 10	1 to 10	B (B represents 100-1000 nM)
Cc1nc2c(C)c(O)c(-c3ccc4nc(N5CC[C@H](NC6CC6)C5)ncc4n3)cc2o1 [Compound 433, 6-{2-[(3S)-3-(cyclopropylamino)pyrrolidin-1-yl]pyrido[3,2-d]pyrimidin-6-yl}-2,4-dimethyl-1,3-benzoxazol-5-ol]	0.1 to 1	0.1 to 1	0.1 to 1	0.1 to 1	< 0.1	< 0.1	B (B represents 100-1000 nM)
